# Tested on: Unknown protein yeast genes
# Assay: DNA chip mRNA expression in yeast, unknown protein yeast genes (Table 1)
# Assay type: cell-based, Saccharomyces cerevisiae S288C
# In short: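 Ratios compare mRNA levels in stressed and control S. cerevisiae. Each toxicant was applied for two hours to log-phase cultures at 25° C. at a sub-lethal, growth-inhibiting level; fluorescent cDNA (Cy3- or Cy5-dUTP) was hybridized to a genome-wide yeast chip for over 12 h at 65° C.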
smiles,measurement,setting,value
"C[S+](C)[O-] [(15), dimethylsulfoxide]",The level of expressed mRNA in the presence of chemical substance/The level of expressed mRNA in the absence of chemical substance,yeast gene YLR008C,0.7
same,The level of expressed mRNA in the presence of chemical substance/The level of expressed mRNA in the absence of chemical substance,yeast gene YLR226W,1.3
same,The level of expressed mRNA in the presence of chemical substance/The level of expressed mRNA in the absence of chemical substance,yeast gene YLR297W,0.7
same,The level of expressed mRNA in the presence of chemical substance/The level of expressed mRNA in the absence of chemical substance,"yeast gene YLR311C, incubated two hours with substance",0.5
same,The level of expressed mRNA in the presence of chemical substance/The level of expressed mRNA in the absence of chemical substance,yeast gene YLR346C,1.0
same,The level of expressed mRNA in the presence of chemical substance/The level of expressed mRNA in the absence of chemical substance,yeast gene YLR392C,0.5
same,The level of expressed mRNA in the presence of chemical substance/The level of expressed mRNA in the absence of chemical substance,yeast gene YLR415C,1.0
same,The level of expressed mRNA in the presence of chemical substance/The level of expressed mRNA in the absence of chemical substance,yeast gene YLR427W,0.8
same,The level of expressed mRNA in the presence of chemical substance/The level of expressed mRNA in the absence of chemical substance,yeast gene YLR460C,0.7
same,The level of expressed mRNA in the presence of chemical substance/The level of expressed mRNA in the absence of chemical substance,yeast gene YML013W,2.2
same,The level of expressed mRNA in the presence of chemical substance/The level of expressed mRNA in the absence of chemical substance,yeast gene YML029W,0.8
same,The level of expressed mRNA in the presence of chemical substance/The level of expressed mRNA in the absence of chemical substance,yeast gene YML041C,1.0
same,The level of expressed mRNA in the presence of chemical substance/The level of expressed mRNA in the absence of chemical substance,yeast gene YML079W,0.3
same,The level of expressed mRNA in the presence of chemical substance/The level of expressed mRNA in the absence of chemical substance,"yeast gene YMR041C, incubated two hours with substance",0.5
same,The level of expressed mRNA in the presence of chemical substance/The level of expressed mRNA in the absence of chemical substance,yeast gene YMR068W,2.2
same,The level of expressed mRNA in the presence of chemical substance/The level of expressed mRNA in the absence of chemical substance,yeast gene YMR090W,1.9
same,The level of expressed mRNA in the presence of chemical substance/The level of expressed mRNA in the absence of chemical substance,yeast gene YMR160W,1.5
same,The level of expressed mRNA in the presence of chemical substance/The level of expressed mRNA in the absence of chemical substance,yeast gene YMR315W,2.5
same,The level of expressed mRNA in the presence of chemical substance/The level of expressed mRNA in the absence of chemical substance,yeast gene YNL026W,0.8
same,The level of expressed mRNA in the presence of chemical substance/The level of expressed mRNA in the absence of chemical substance,yeast gene YNL058C,2.2
same,The level of expressed mRNA in the presence of chemical substance/The level of expressed mRNA in the absence of chemical substance,yeast gene YNL063W,0.7
same,The level of expressed mRNA in the presence of chemical substance/The level of expressed mRNA in the absence of chemical substance,yeast gene YNL176C,0.8
same,The level of expressed mRNA in the presence of chemical substance/The level of expressed mRNA in the absence of chemical substance,yeast gene YNL194C,0.5
same,The level of expressed mRNA in the presence of chemical substance/The level of expressed mRNA in the absence of chemical substance,yeast gene YNL200C,0.8
same,The level of expressed mRNA in the presence of chemical substance/The level of expressed mRNA in the absence of chemical substance,yeast gene YNL211C,0.8
same,The level of expressed mRNA in the presence of chemical substance/The level of expressed mRNA in the absence of chemical substance,yeast gene YNL253W,0.5
same,The level of expressed mRNA in the presence of chemical substance/The level of expressed mRNA in the absence of chemical substance,yeast gene YNR051C,1.2
same,The level of expressed mRNA in the presence of chemical substance/The level of expressed mRNA in the absence of chemical substance,yeast gene YOL026C,0.9
same,The level of expressed mRNA in the presence of chemical substance/The level of expressed mRNA in the absence of chemical substance,yeast gene YOL031C,4.4
same,The level of expressed mRNA in the presence of chemical substance/The level of expressed mRNA in the absence of chemical substance,yeast gene YOL101C,0.6
same,The level of expressed mRNA in the presence of chemical substance/The level of expressed mRNA in the absence of chemical substance,yeast gene YOL150C,1.8
same,The level of expressed mRNA in the presence of chemical substance/The level of expressed mRNA in the absence of chemical substance,yeast gene YOR022C,0.8
same,The level of expressed mRNA in the presence of chemical substance/The level of expressed mRNA in the absence of chemical substance,yeast gene YOR049C,1.3
same,The level of expressed mRNA in the presence of chemical substance/The level of expressed mRNA in the absence of chemical substance,yeast gene YOR087W,0.8
same,The level of expressed mRNA in the presence of chemical substance/The level of expressed mRNA in the absence of chemical substance,yeast gene YOR138C,1.0
same,The level of expressed mRNA in the presence of chemical substance/The level of expressed mRNA in the absence of chemical substance,"yeast gene YOR248W, incubated two hours with chemical substance",8.8
same,The level of expressed mRNA in the presence of chemical substance/The level of expressed mRNA in the absence of chemical substance,yeast gene YOR253W,1.1
same,The level of expressed mRNA in the presence of chemical substance/The level of expressed mRNA in the absence of chemical substance,yeast gene YOR267C,1.3
same,The level of expressed mRNA in the presence of chemical substance/The level of expressed mRNA in the absence of chemical substance,yeast gene YOR338W,1.8
same,The level of expressed mRNA in the presence of chemical substance/The level of expressed mRNA in the absence of chemical substance,yeast gene YPL005W,1.2
same,The level of expressed mRNA in the presence of chemical substance/The level of expressed mRNA in the absence of chemical substance,yeast gene YPL150W,1.1
same,The level of expressed mRNA in the presence of chemical substance/The level of expressed mRNA in the absence of chemical substance,yeast gene YPL152W,2.3
same,The level of expressed mRNA in the presence of chemical substance/The level of expressed mRNA in the absence of chemical substance,yeast gene YPL168W,0.8
same,The level of expressed mRNA in the presence of chemical substance/The level of expressed mRNA in the absence of chemical substance,yeast gene YPL180W,0.7
same,The level of expressed mRNA in the presence of chemical substance/The level of expressed mRNA in the absence of chemical substance,yeast gene YPL188W,0.8
same,The level of expressed mRNA in the presence of chemical substance/The level of expressed mRNA in the absence of chemical substance,yeast gene YPL221W,1.0
same,The level of expressed mRNA in the presence of chemical substance/The level of expressed mRNA in the absence of chemical substance,yeast gene YPL280W,4.3
same,The level of expressed mRNA in the presence of chemical substance/The level of expressed mRNA in the absence of chemical substance,yeast gene YPR049C,1.5
same,The level of expressed mRNA in the presence of chemical substance/The level of expressed mRNA in the absence of chemical substance,"yeast gene YPR077C, cells incubated two hours with the chemical substance",2.9
same,The level of expressed mRNA in the presence of chemical substance/The level of expressed mRNA in the absence of chemical substance,yeast gene YPR148C,1.7
same,The level of expressed mRNA in the presence of chemical substance/The level of expressed mRNA in the absence of chemical substance,yeast gene YPR172W,1.5

# — patent publication US8192962B2, “Processes for detecting toxic substances” (Daikin Industries, Ltd., priority 2001, dated 2012)
